This is an account of results in ChEMBL document CHEMBL5038665, “Identification of the Benzoimidazole Compound as a Selective FLT3 Inhibitor by Cell-Based High-Throughput Screening of a Diversity Library” (J Med Chem, 2022).

pIC50: −log10 of the molar value. Some results are limits rather than exact numbers.

Series [1] has as its system MOLM-13. The experiment in a line: Antiproliferative activity against human MOLM-13 cells harboring FLT3-ITD mutant assessed as reduction in cell viability measured after 72 hrs by MTS assay. As to conditions: MOLM-13, 72 h. It counts as functional, cell-based.
In series [2] the target is Serine/threonine-protein kinase B-raf (Homo sapiens, UniProt P15056). Briefly: Inhibition of BRAF (unknown origin).
The nature of series [3]: Toxicity in Balb/c mouse implanted with mouse Ba/F3 FLT3-ITD cells assessed as body weight loss at 30 to 100 mg/kg, po administered for 14 days. The format is organism-based, BaF3. The following applies: in vivo, 336 h, time 14 day.
Series [4] has as its system MOLM-13. The experiment in a line: Induction of apoptosis in human MOLM-13 cells assessed as survival population at 1 uM measured after 48 hrs by Annexin V-FITC/propidium iodide staining based flow cytometry(reference value: 97.35 %). It counts as functional.
A short description of series [5]: Induction of apoptosis in mouse Ba/F3 FLT3-ITD cells assessed as survival population at 0.1 uM measured after 48 hrs by Annexin V-FITC/propidium iodide staining based flow cytometry(reference value: 93.99 %). It counts as functional.
A short description of series [6]: Cmax in 12 hrs fasted Sprague-Dawley rat at 15 mg/kg, po measured upto 24 hrs by LC-MS analysis. It counts as ADME, organism-based. Further details: route oral, dose 15 mg/kg, time <=24. As to conditions: in vivo.
The next series has as its system HL-60. The experiment in a line: Antiproliferative activity against human HL-60 cells expressing wild type FLT3 assessed as reduction in cell viability measured after 72 hrs by MTS assay. As to conditions: HL-60, 72 h. The format is functional, cell-based.
Series [7] is described as follows: AUC (0-t) in 12 hrs fasted Sprague-Dawley rat at 2 mg/kg, iv measured upto 24 hrs by LC-MS analysis. The format is ADME, organism-based. Also on record: route intravenous, dose 2 mg/kg, time <=24. As to conditions: in vivo.
Another series deals with MV4-11. The experiment in a line: Induction of apoptosis in human MV4-11 cells assessed as survival population at 1 uM measured after 48 hrs by Annexin V-FITC/propidium iodide staining based flow cytometry(reference value: 98.01 %). The format is functional.
The nature of series [8]: Induction of apoptosis in mouse BaF3 cells assessed as survival population at 0.5 uM measured after 48 hrs by Annexin V-FITC/propidium iodide staining based flow cytometry(reference value: 96.35 %). As to conditions: read-out: Activity. It counts as toxicity, cell-based.
The target of series [9] is T1, Receptor-type tyrosine-protein kinase FLT3 (Homo sapiens, UniProt P36888).
T1 sequence (P36888 whole entry): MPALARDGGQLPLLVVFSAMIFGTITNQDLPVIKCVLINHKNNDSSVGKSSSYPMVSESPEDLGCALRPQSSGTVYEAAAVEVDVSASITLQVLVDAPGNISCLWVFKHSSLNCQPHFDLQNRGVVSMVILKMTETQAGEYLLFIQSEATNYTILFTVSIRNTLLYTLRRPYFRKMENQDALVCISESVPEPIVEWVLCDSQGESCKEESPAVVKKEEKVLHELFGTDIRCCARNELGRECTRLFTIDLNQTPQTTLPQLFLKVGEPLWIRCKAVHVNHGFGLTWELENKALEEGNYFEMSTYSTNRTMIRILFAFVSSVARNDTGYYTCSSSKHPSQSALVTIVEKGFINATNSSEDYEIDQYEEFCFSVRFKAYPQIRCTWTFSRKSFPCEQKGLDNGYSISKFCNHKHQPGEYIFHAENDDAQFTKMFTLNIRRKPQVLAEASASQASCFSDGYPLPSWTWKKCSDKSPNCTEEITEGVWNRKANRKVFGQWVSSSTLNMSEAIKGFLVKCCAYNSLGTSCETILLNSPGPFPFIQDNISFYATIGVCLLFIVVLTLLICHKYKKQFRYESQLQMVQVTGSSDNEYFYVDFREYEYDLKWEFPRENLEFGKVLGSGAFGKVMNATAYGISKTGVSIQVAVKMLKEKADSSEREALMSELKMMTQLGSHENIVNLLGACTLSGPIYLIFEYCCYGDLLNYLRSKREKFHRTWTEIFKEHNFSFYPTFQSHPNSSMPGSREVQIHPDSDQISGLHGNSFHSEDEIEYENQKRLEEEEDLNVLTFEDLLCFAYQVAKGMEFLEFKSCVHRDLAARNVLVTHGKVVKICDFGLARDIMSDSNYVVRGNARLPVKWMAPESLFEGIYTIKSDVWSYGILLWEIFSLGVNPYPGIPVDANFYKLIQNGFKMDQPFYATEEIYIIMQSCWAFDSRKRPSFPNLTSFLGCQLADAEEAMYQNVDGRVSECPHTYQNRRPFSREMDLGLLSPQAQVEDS
Briefly: Inhibition of FLT3 (unknown origin).

Series [10] in a line: Antiproliferative activity against mouse BaF3 cells expressing wild type FLT3 assessed as reduction in cell viability measured after 72 hrs by MTS assay. It counts as toxicity, cell-based.
Series [11] in a line: Tmax in 12 hrs fasted Sprague-Dawley rat at 15 mg/kg, po measured upto 24 hrs by LC-MS analysis. It counts as ADME, organism-based. The following applies: in vivo.
The nature of series [12]: AUC (0-t) in 12 hrs fasted Sprague-Dawley rat at 15 mg/kg, po measured upto 24 hrs by LC-MS analysis. It counts as ADME, organism-based. Further details: route oral, dose 15 mg/kg, time <=24. The following applies: in vivo.
A short description of series [13]: Induction of apoptosis in mouse Ba/F3 FLT3-ITD cells assessed as survival population at 0.5 uM measured after 48 hrs by Annexin V-FITC/propidium iodide staining based flow cytometry(reference value: 93.99 %). It counts as functional.
For series [14], the target named is Receptor-type tyrosine-protein kinase FLT3 (Homo sapiens, UniProt P36888, ITD). Briefly: Inhibition of FLT3-ITD mutant (unknown origin).
Series [15] deals with MOLM-13. The experiment in a line: Induction of apoptosis in human MOLM-13 cells assessed as survival population at 0.1 uM measured after 48 hrs by Annexin V-FITC/propidium iodide staining based flow cytometry(reference value: 97.35 %). It counts as functional.
A short description of series [16]: Antiproliferative activity against mouse Ba/F3 FLT3-ITD cells assessed as reduction in cell viability measured after 72 hrs by MTS assay. It counts as functional, cell-based.

Sequence of Serine/threonine-protein kinase B-raf (P15056 whole entry): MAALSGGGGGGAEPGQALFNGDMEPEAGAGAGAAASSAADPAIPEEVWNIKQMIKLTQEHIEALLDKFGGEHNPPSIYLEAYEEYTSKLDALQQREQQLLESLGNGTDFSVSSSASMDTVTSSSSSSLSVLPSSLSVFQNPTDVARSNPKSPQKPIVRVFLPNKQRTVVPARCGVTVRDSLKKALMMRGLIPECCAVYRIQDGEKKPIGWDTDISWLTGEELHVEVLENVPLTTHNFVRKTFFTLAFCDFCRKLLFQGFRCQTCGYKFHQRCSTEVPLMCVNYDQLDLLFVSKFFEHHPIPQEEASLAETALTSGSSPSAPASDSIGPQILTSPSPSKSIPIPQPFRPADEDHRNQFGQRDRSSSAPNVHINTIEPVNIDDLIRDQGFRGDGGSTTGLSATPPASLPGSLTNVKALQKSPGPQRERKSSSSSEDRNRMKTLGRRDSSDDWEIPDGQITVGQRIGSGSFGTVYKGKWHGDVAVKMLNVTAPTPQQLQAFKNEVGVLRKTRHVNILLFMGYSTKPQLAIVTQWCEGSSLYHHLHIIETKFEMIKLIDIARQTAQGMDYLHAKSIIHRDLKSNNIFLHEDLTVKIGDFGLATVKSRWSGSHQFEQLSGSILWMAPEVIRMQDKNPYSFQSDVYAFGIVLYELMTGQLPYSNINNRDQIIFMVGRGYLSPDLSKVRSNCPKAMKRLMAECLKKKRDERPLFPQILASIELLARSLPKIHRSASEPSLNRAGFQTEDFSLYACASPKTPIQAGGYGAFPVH

In the case of `COc1cc(CNc2ccc3c(c2)ncn3-c2ccccc2)ccc1OCCO`, the pIC50 in the series on MOLM-13 [1] was 7.18; in [2], less than 6.00; in the series on HL-60, less than 4.30; in [9], 7.07; in [14], 7.15; in series [16], 7.12. Besides, the Activity result is reported as “Non-Toxic” in series [3]; 65.52% with MOLM-13 [4]; 78.45% in [5]; 68.54% in the series with MV4-11; 47.99% in [13]; 83.61% in the series on MOLM-13 [15]. In series [6], the Cmax turned out to be 440 ng/mL. The AUC(0-t) at 24 h in series [7] was 800 ng·h/mL; in [12], 2890 ng·h/mL. Also, the viability at 48 h, 0.5 µM in series [8] stood at 96.7%. For the same compound, in series [10], the half-maximal inhibitory concentration (IC50) at 72 h is greater than 400 nM. In addition, the time of peak concentration (Tmax) in series [11] was determined as 39 min.
